Measurements: patent US10457637B2, “Benzenesulfonamide derivatives as inverse agonists of retinoid-related orphan receptor gamma (RORγ(T))” (GALDERMA RESEARCH & DEVELOPMENT, priority 2014, dated 2019)

Assays:
Type in all cases: cell-based
[1] = test system: IL-17A secretion by CD4+ cells; test: IL-17A secretion by CD4+ cells (HTRF); conditions: 96 h; human CD4+ cells activated with anti-CD3 and anti-CD28, 4 days of incubation; read-out: IC50 hCD4/IL17
Method: This model allows measurement of the effect of inhibitors on IL-17A secretion by CD4+ cells. […] The amount of IL-17a secreted is measured by the TR-FRET (kit HTRF® Human Interleukin 17A (Cisbio, #64H17PEC)) technology.
The cells are rapidly thawed, resuspended in their culture medium (RPMI inactivated 10% FCS) supplemented with soluble anti-CD28 antibodies and seeded (100 000 cells/well) in 96-well plates precoated with anti-CD3 antibodies. The cells are then treated with the ranges of inhibitors to be tested (from 1000 nM to 0.05 nM, 0.1% DMSO). […] The IC50 values are calculated from a 4-parameter logistic model using the XLFit software (IDBS).

hERG = hERG (Homo sapiens (Human), UniProt Q12809); test: hERG test, patch clamp on CHO-K1 cells; conditions: CHO-K1 cells transfected with the hERG gene
Text: In the table below, the median inhibitory concentrations IC50 for the compounds belonging to formula (I) according to the invention have been given in accordance with the hERG test.
The hERG test makes it possible to study a gene which codes for a protein required for the functioning of heart tissue potassium channels. The patch clamp method on CHO-K1 cells (cells transfected with the hERG gene which has K+ ion activity on the membranes) is used for in vitro prediction of the blocking of hERG (human Ether-a-go-go Related).
The extracellular solution (control) is applied first. The cells (Chinese hamster ovarian cells expressing the Human Ether-a-go-go Related Gene) are stabilized with the extracellular solution for 5 minutes. The cells are incubated for 5 minutes with the molecules from the weakest to the strongest concentration at 0.6% DMSO final.
The result is expressed in the form of an IC50 value in μM.

[2] = target: ROR gamma ligand-binding domain (hRORg) (Homo sapiens (Human), UniProt P51449); test: GAL4-RORγ transactivation (luciferase reporter, HG5LN HeLa line); conditions: 18 hours incubation
In short: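 HeLa-derived HG5LN cells stably expressing GAL4 DBD fused to human RORγ LBD with GAL4-driven luciferase reporter; inhibition of constitutive activity lowers luminescence.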

Sequence of hERG (Q12809 whole entry): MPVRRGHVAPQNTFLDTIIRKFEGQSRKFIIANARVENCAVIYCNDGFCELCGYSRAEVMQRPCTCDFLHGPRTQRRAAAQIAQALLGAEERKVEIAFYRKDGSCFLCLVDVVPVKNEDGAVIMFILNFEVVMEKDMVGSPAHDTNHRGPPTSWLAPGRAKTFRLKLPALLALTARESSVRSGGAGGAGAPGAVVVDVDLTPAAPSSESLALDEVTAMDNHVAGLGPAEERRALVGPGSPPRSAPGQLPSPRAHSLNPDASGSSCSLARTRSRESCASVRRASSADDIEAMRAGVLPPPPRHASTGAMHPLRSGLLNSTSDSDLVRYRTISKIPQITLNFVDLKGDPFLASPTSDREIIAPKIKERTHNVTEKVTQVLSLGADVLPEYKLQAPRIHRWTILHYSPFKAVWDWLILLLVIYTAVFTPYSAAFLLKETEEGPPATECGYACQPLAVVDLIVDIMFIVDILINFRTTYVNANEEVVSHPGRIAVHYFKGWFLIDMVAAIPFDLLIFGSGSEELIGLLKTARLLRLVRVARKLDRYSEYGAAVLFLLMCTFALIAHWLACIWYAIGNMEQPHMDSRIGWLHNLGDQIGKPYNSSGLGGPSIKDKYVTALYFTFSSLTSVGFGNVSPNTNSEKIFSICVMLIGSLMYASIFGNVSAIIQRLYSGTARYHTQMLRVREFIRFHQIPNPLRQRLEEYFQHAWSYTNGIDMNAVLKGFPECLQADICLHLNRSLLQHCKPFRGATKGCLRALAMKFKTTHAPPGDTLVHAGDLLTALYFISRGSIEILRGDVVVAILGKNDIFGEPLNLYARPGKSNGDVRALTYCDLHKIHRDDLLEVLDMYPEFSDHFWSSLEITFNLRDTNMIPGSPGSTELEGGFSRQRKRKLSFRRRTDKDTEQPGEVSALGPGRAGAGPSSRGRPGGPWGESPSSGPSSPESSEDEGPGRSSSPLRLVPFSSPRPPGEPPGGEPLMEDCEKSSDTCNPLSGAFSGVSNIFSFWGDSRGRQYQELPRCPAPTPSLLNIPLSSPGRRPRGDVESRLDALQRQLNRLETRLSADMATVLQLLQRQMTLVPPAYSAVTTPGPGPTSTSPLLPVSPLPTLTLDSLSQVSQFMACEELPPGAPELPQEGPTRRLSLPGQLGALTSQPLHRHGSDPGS
Sequence of ROR gamma ligand-binding domain (hRORg) (P51449 269-508): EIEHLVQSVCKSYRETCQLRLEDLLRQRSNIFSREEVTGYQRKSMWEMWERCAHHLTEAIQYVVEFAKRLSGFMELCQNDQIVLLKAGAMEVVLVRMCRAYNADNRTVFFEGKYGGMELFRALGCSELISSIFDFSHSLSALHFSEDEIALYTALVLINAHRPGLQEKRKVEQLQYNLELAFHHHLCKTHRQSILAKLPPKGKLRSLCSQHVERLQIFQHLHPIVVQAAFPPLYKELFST

Row | IC50 [1] | IC50 [2] | SMILES | IC50 (hERG) | IC50 at 5 min (hERG; human)
1 | > 1000 nM | > 1000 nM | CCc1ccc(N(CC(C)C)S(=O)(=O)c2ccc(N3CCC(O)CC3)c(S(C)(=N)=O)c2)cc1 (stereo not drawn) [compound 128, N-(4-ethylphenyl)-4-(4-hydroxypiperidin-1-yl)-N-isobutyl-3-(S-methylsulfonimidoyl)benzenesulfonamide] |  | 
2 | < 100 nM | < 100 nM | CCc1ccc(N(CC(C)C)S(=O)(=O)c2ccc(NC[C@@H]3[C@H]4COC[C@@H]34)c(S(C)(=N)=O)c2)cc1 (stereo partly drawn) [compound 91, 4-((((1R,5S,6S)-3-oxabicyclo[3.1.0]hexan-6-yl)methyl)amino)-N-(4-ethylphenyl)-N-isobutyl-3-(S-methylsulfonimidoyl)benzenesulfonamide] |  | 
3 | > 1000 nM | > 1000 nM | CCc1ccc(N(CC(C)C)S(=O)(=O)c2ccc(N3CC[C@@H](O)C3)c(S(C)(=N)=O)c2)cc1 (stereo partly drawn) [compound 130, N-(4-ethylphenyl)-4-((R)-3-hydroxypyrrolidin-1-yl)-N-isobutyl-3-(S-methylsulfonimidoyl)benzenesulfonamide] |  | 
4 | < 100 nM | < 100 nM | CCc1ccc(N(CC(C)C)S(=O)(=O)c2ccc(NCC3CC(O)C3)c(S(C)(=N)=O)c2)cc1 (stereo not drawn) [compound 61, N-(4-ethylphenyl)-4-(((3-hydroxycyclobutyl)methyl)amino)-N-isobutyl-3-(S-methylsulfonimidoyl)benzenesulfonamide] | 25700 nM | 
5 | > 1000 nM | > 1000 nM | CCc1ccc(N(CC(C)C)S(=O)(=O)c2ccc(N3CC(O)C3)c(S(C)(=N)=O)c2)cc1 (stereo not drawn) [compound 131, N-(4-ethylphenyl)-4-(3-hydroxyazetidin-1-yl)-N-isobutyl-3-(S-methylsulfonimidoyl)benzenesulfonamide] |  | 
6 | < 100 nM | < 100 nM | CCc1ccc(N(CC(C)C)S(=O)(=O)c2ccc(NCc3ccncc3)c(S(C)(=N)=O)c2)cc1 (stereo not drawn) [compound 64, N-(4-ethylphenyl)-N-isobutyl-3-(S-methylsulfonimidoyl)-4-((pyridin-4-ylmethyl)amino)benzenesulfonamide] |  | 
7 | > 1000 nM | 100 to 1000 nM | CCc1ccc(N(CC(C)C)S(=O)(=O)c2ccc(NCC3(OC)CCOCC3)c(S(C)(=N)=O)c2)cc1 (stereo not drawn) [compound 125, N-(4-ethylphenyl)-N-isobutyl-4-(((4-methoxytetrahydro-2H-pyran-4-yl)methyl)amino)-3-(S-methylsulfonimidoyl)benzenesulfonamide] |  | 

The next lines start with the compound.

Row | SMILES | IC50 [1] | IC50 [2] | IC50 (hERG) | IC50 at 5 min (hERG; human)
8 | CCc1ccc(N(CC(C)C)S(=O)(=O)c2ccc(OCC3CCOCC3)c([S@@](C)(=N)=O)c2)cc1 (single isomer, unassigned) [compound 8, N-(4-ethylphenyl)-N-isobutyl-3-methanesulfoximino-4-(tetrahydropyran-4-ylmethoxy)benzenesulfonamide] | < 100 nM |  | > 30000 nM | 
9 | CCc1ccc(N(CC(C)C)S(=O)(=O)c2ccc(N(C)CC3CCOCC3)c(S(C)(=N)=O)c2)cc1 (stereo not drawn) [compound 53, N-(4-ethylphenyl)-N-isobutyl-4-(methyl((tetrahydro-2H-pyran-4-yl)methyl)amino)-3-(S-methylsulfonimidoyl)benzenesulfonamide] | < 100 nM |  | 11800 nM | 
10 | CCc1ccc(N(CC(C)C)S(=O)(=O)c2ccc(OCC3CCOCC3)c([S@](C)(=N)=O)c2)cc1 [compound 7, N-(4-ethylphenyl)-N-isobutyl-3-methanesulfoximino-4-(tetrahydropyran-4-ylmethoxy)benzenesulfonamide] | < 100 nM |  | > 30000 nM | 
11 | CCc1ccc(N(CC(C)C)S(=O)(=O)c2ccc(OC[C@H]3[C@@H]4COC[C@@H]43)c(S(C)(=N)=O)c2)cc1 (stereo partly drawn) [compound 35, 4-(((1R,5S,6R)-3-oxabicyclo[3.1.0]hexan-6-yl)methoxy)-N-(4-ethylphenyl)-N-isobutyl-3-(S-methylsulfonimidoyl)benzenesulfonamide] |  | < 100 nM | > 30000 nM | 
12 | CCc1ccc(N(CC(C)C)S(=O)(=O)c2ccc(OCC3CCOCC3)c(S(C)(=N)=O)c2)cc1 (racemic) [compound 26, N-(4-ethylphenyl)-N-isobutyl-3-methanesulfonoximino-4-(tetrahydropyran-4-ylmethoxy)benzenesulfonamide] | < 100 nM |  | > 30000 nM | 
13 | CCc1ccc(N(CC(C)C)S(=O)(=O)c2ccc(NCC3(C)CCOCC3)c(S(C)(=N)=O)c2)cc1 (stereo not drawn) [compound 55, N-(4-ethylphenyl)-N-isobutyl-3-(S-methylsulfonimidoyl)-4-(((4-methyltetrahydro-2H-pyran-4-yl)methyl)amino)benzenesulfonamide] | < 100 nM |  | 14100 nM | 
14 | CCc1ccc(N(CC(C)C)S(=O)(=O)c2ccc(OCC3CCSCC3)c(S(C)(=N)=O)c2)cc1 (stereo not drawn) [compound 37] |  |  |  | 11800 nM
15 | CCc1ccc(N(CC(C)C)S(=O)(=O)c2ccc(NCC3(F)CCOCC3)c(S(C)(=N)=O)c2)cc1 (stereo not drawn) [compound 62, N-(4-ethylphenyl)-4-(((4-fluorotetrahydro-2H-pyran-4-yl)methyl)amino)-N-isobutyl-3-(S-methylsulfonimidoyl)benzenesulfonamide] | < 100 nM |  | 16400 nM | 
